In paper PMC10291553, “Exploring Structure–Activity Relationships in Photodynamic Therapy Anticancer Agents Based on Ir(III)-COUPY Conjugates” (Journal of Medicinal Chemistry, 2023):
Read-outs that look alike come from different tables or passages of the source.

Experiments:
[1] = test system: SK-MEL-28; experiment: Photo- and cytotoxic activity determination (MTT), SK-MEL-28 cells; assay type: cell-based, human; details: normoxia; for SK-MEL-28 PI (phototherapeutic index), IC50 dark/IC50 irradiated: dark tested up to 100 μM
From the text: (§1) Having shown that the Ir(III)-COUPY conjugates can sensitize both type I and II ROS through spectroscopic techniques and readily internalize into living cells, their photocytotoxicity was screened in various cancer cell lines. This screening included two representative melanoma cell lines (human A375 and […] human SK-MEL-28) and cancer cells with resistance to the clinical drug cisplatin. For the latter, both sensitive and cisplatin-resistant ovarian cancer cells (A2780 and A2780cis) as well as HeLa cells, which also show a degree of chemoresistance to the platinum anticancer drug in vitro,[54] were used. For the determination of dark and light cytotoxicity, dose–response curves were assayed from both conditions to provide the correspondent IC50 values, which correspond to the concentration needed for inhibition of cell growth by 50%. Phototherapeutic index (PI) was calculated as the ratio of dark to light IC50 value for each compound.
A375, HeLa, and SK-MEL-28 cells were cultured in Dulbecco’s modified Eagle medium (DMEM) supplemented with 10% FBS, L-glutamine, and 1% penicillin–streptomycin. A2780 and A2780cis cells were grown in RPMI-1640 cell medium supplemented with 10% fetal bovine serum (FBS) and 2 mM L-glutamine. Acquired resistance to cisplatin in the A2780cis cell line was maintained by adding cisplatin 1 μM to culture medium every second passage. Cells were cultured in a humidified incubator at 310 K with 5% CO2 atmosphere and subcultured two or three times a week with appropriate densities and were confirmed to be mycoplasma-free using a standard Hoechst DNA staining method.
(§2) A2780, A2780cis, HeLa, A375, and SK-MEL-28 cells were maintained at logarithmic growth-phase and cultured in 96-well plates at a density of 5000 cells/well in complete medium for 24 h at 310 K, 5% CO2 in a humidified incubator. For hypoxia experiments, a hypoxia condition was set up by Tissue Culture Service at University of Murcia using nitrogen (N2) to displace O2 down to a minimum of 2% in a Forma Steri-Cycle i160 incubator (Thermo Fisher Scientific). Serial dilutions of the compounds were added at the final concentrations in the range of 0–100 μM in a final volume of 100 μL per well. A light-based treatment schedule was performed as follows: 1 h incubation with the compounds in the dark, followed by 1 h incubation under irradiation conditions by placing the Photoreactor EXPO-LED from Luzchem (Canada) fitted with green lamps (final light intensity applied of 1.5 mW/cm^2 at λmax = 520 nm) inside the CO2 incubator. All the cell culture plates subjected to light irradiation included untreated controls to verify that cell viability was not affected by light. Then, treatment-containing media was removed, and fresh media was added for a 48 h cell recovery period; the temperature throughout the experiment remained at 310 K. Dark control samples were placed in the same dark conditions and then kept incubated for 1 h in the dark in the humidified CO2 incubator. Medium was then aspirated by suction, cells were loaded with 50 μL of MTT solution (1 mg/mL) for additional 4 h and then removed, and 50 μL of DMSO was added to solubilize the purple formazan crystals formed in active cells. The absorbance was measured at 570 nm using a microplate reader (FLUOstar Omega), and the IC50 values were calculated based on the inhibitory rate curves using the following equation [drawing 4] 4 where I represents the percentage inhibition of viability observed, Imax is the maximal inhibitory effect, IC50 is the concentration that inhibits 50% of maximal growth, C is the concentration of the treatment, and n is the slope of the semi-logarithmic dose–response sigmoidal curves. The non-linear fitting was performed using SigmaPlot 14.0 software. All experiments were performed in three independent studies with n = 3 replicates per concentration level. For a detailed phototoxicity procedure, ref ([43]) includes technical explanations.

[2] = test system: A375, SK-MEL-28, HeLa, A2780 and A2780cis cancer cells; experiment: Photo- and cytotoxicity, statements across the studied cancer cell lines; assay type: cell-based; details: for IC50: absence of light, regardless of the cell line, read-out: dark IC50 in the studied cancer cell lines
From the text: as §1
as §2, with “4 where I represents the percentage inhibition of viability observed, Imax is the maximal inhibitory effect, IC50 is the concentration that inhibits 50% of maximal growth, C is the concentration of the treatment, and n is the slope of the semi-logarithmic dose–response sigmoidal curves. The non-linear fitting was performed using SigmaPlot 14.0 software. All experiments were performed in three independent studies with n = 3 replicates per concentration level. For a detailed phototoxicity procedure, ref ([43]) includes technical explanations.” left out

[3] = Singlet oxygen generation, time-resolved NIR phosphorescence at 1275 nm; assay type: physicochemical; details: for singlet oxygen quantum yield at 355 nm, ACN / singlet oxygen quantum yield at 355 nm, DCM / singlet oxygen quantum yield at 355 nm, PBS: excitation 355 nm; for singlet oxygen quantum yields in DCM: excitation at 355 and 532 nm
From the text: Singlet oxygen generation was studied by time-resolved near-infrared phosphorescence by means of a customized setup. Briefly, a pulsed Nd:YAG laser (FTSS355-Q, Crystal Laser, Berlin, Germany) working at a 1 or 10 kHz repetition rate at 355 nm (0.5 μJ per pulse) or 532 nm (1.2 μJ per pulse) was used to excite the sample. A 1064 nm rugate notch filter (Edmund Optics) and an uncoated SKG-5 filter (CVI Laser Corporation) were placed in the laser path to remove any NIR emission. The light emitted by the sample was filtered with a 1000 nm long-pass filter (Edmund Optics) and later by a narrow bandpass filter at 1275 nm (BK-1270-70-B, bk Interferenzoptik). A thermoelectric-cooled NIR-sensitive photomultiplier tube assembly (H9170-45, Hamamatsu Photonics, Hamamatsu, Japan) was used as a detector. […] The time dependence of the ^1O2 phosphorescence with the signal intensity S(t) is described by eq 2, in which τT and τΔ are the lifetimes of the photosensitizer triplet state and of ^1O2 respectively, and S0 is a preexponential parameter proportional to ΦΔ. [drawing 2] 2
The ΦΔ values of the different samples were obtained by comparing S0 values of optically matched samples and using an appropriate reference by means of eq 3. [drawing 3] 3

[4] = test system: A2780cis cells; experiment: ROS photogeneration in cells (DCFH-DA probe); assay type: cell-based; details: 10 μM; for ROS levels after 520 nm light, normoxia: normoxia 21% O2, 520 nm, 1 h; for ROS levels in the absence of light, normoxia: dark
Method: ROS levels were determined using the 2′-7′dichlorofluorescein diacetate (DCFH-DA) probe. A2780cis cells were seeded onto 96-well black plates at 2 × 10^4cells/well for 24 h in a humidified CO2 incubator either in normoxia (21% O2) or hypoxia (2% O2). Tested compounds were then administered in cell media for the allowed time. Treatments were then removed, and cells were stained with 10 μM of DCFH-DA for 0.5 h. After staining, cells were washed with PBS twice and irradiated for 1 h with LED source light from Luzchem photoreactor (Canada) fitted with green lamps (final light intensity applied of 1.5 mW/cm^2 at λmax = 520 nm). Fluorescence readings were performed in FLUOstar Omega (λexc = 488 nm and λem = 530 ± 30 nm). Non-irradiated plates were used for dark conditions, whereas treated, unstained cells were used to subtract basal fluorescence of compounds and correct fluorescence readings. Unstained cells served as blank. Three independent experiments were performed with n = 3 replicates.

[5] = Homo sapiens, SK-MEL-28, 1 h incubation + 1 h green light 520 nm, 1.5 mW cm^–2, 48 h drug-free medium, read-out: SK-MEL-28 light IC50
[6] = Homo sapiens, SK-MEL-28, kept in the dark, 2 h treatment, 48 h drug-free medium, read-out: SK-MEL-28 dark IC50
[7] = excitation 532 nm, room temperature
[8] = 1 h incubation + 1 h green light 520 nm, 1.5 mW cm^–2, 48 h drug-free medium, read-out: SK-MEL-28 light IC50
[9] = kept in the dark, 2 h treatment, 48 h drug-free medium, read-out: SK-MEL-28 dark IC50

SMILES | IC50 [1, 5] | IC50 [1, 6] | SK-MEL-28 PI (phototherapeutic index), IC50 dark/IC50 irradiated ([1]; 520 nm) | IC50 [1, 8] | IC50 [1, 9] | ROS levels after 520 nm light, normoxia [4] | ROS levels in the absence of light, normoxia [4] | other results
CCN(CC)c1ccc2c(c1)O/C(=C(/C#N)c1cc[n+](C)cc1)C=C2C [1a] | 1.2 ± 0.1 µM | > 100 µM | > 86 | – | – | – | – | fold differences in bioactivity upon irradiation ([2]; melanoma cells, 520 nm): more than 86 fold
CC1=C/C(=C(\C#N)c2cc[n+](C)cc2)Oc2ccccc21 [1b] | > 100 µM | > 100 µM | – | – | – | – | – | IC50 ([1]; Homo sapiens, SK-MEL-28, 520 nm, read-out: SK-MEL-28 Light 520 nm IC50 (microM) Normoxia): > 100 µM; IC50 ([1]; Homo sapiens, SK-MEL-28, dark, read-out: SK-MEL-28 Dark IC50 (microM) Normoxia): > 100 µM; antiproliferative activity after light irradiation ([2]; 520 nm, investigated cancer cells): did not display antiproliferative activity after light irradiation; singlet oxygen quantum yield at 355 nm, ACN ([3]; room temperature): 0.01; singlet oxygen quantum yield at 532 nm, ACN [3, 7]: < 0.01; singlet oxygen quantum yield at 355 nm, DCM ([3]; DCM, room temperature): 0.01; singlet oxygen quantum yield at 355 nm, PBS ([3]; room temperature): 0; singlet oxygen quantum yield at 532 nm, PBS [3, 7]: < 0.01
CC1=C/C(=C(\C#N)c2cc[n+](C)cc2)Oc2c1cc1c3c2CCCN3CCC1 [1c] | 0.2 ± 0.01 µM | 12 ± 1 µM | 60 | – | – | – | – | IC50 [2]: 5 to 26 µM; singlet oxygen quantum yield at 355 nm, ACN ([3]; room temperature): 0; singlet oxygen quantum yield at 532 nm, ACN [3, 7]: 0.01; singlet oxygen quantum yield at 355 nm, DCM ([3]; DCM, room temperature): 0.03; singlet oxygen quantum yield at 532 nm, DCM ([3]; DCM, excitation 532 nm, room temperature): 0.03; singlet oxygen quantum yield at 355 nm, PBS ([3]; room temperature): 0; singlet oxygen quantum yield at 532 nm, PBS [3, 7]: < 0.01
CCCCn1c2[n+](c3cc(C(=O)OC)ccc31)[Ir-3]13([c]4ccccc4-c4[nH]c5ccccc5[n+]41)([c]1ccccc1-c1[nH]c4ccccc4[n+]13)[n+]1c-2ccc2ccccc21 [2a] | – | – | > 36 | 2.8 ± 0.3 µM | > 100 µM | – | – | –
CCCCn1c2[n+](c3cc(C(=O)NCCCNC(=O)C[n+]4ccc(/C(C#N)=C5/C=C(C)c6ccc(N(CC)CC)cc6O5)cc4)ccc31)[Ir-3]13([c]4ccccc4-c4[nH]c5ccccc5[n+]41)([c]1ccccc1-c1[nH]c4ccccc4[n+]13)[n+]1c-2ccc2ccccc21 [3a] | – | – | > 67 | 1.5 ± 0.1 µM | > 100 µM | strong fluorescence signal | slightly increased ROS levels | –
CCCCn1c2[n+](c3cc(C(=O)NCCCNC(=O)C[n+]4ccc(/C(C#N)=C5/C=C(C)c6ccccc6O5)cc4)ccc31)[Ir-3]13([c]4ccccc4-c4[nH]c5ccccc5[n+]41)([c]1ccccc1-c1[nH]c4ccccc4[n+]13)[n+]1c-2ccc2ccccc21 [3b] | – | – | > 48 | 2.1 ± 0.2 µM | > 100 µM | – | – | ROS levels after green-light irradiation, hypoxia ([4]; hypoxia 2% O2, 520 nm): a slight increase in ROS levels; singlet oxygen quantum yields in DCM ([3]; DCM): ca. 0.20
CCCCn1c2[n+](c3cc(C(=O)NCCCNC(=O)C[n+]4ccc(/C(C#N)=C5/C=C(C)c6cc7c8c(c6O5)CCCN8CCC7)cc4)ccc31)[Ir-3]13([c]4ccccc4-c4[nH]c5ccccc5[n+]41)([c]1ccccc1-c1[nH]c4ccccc4[n+]13)[n+]1c-2ccc2ccccc21 [3c] | – | – | – | > 100 µM | > 100 µM | strong fluorescence signal | – | IC50 ([1]; 520 nm, read-out: SK-MEL-28 Light 520 nm IC50 (microM) Normoxia): > 100 µM; IC50 ([1]; dark, read-out: SK-MEL-28 Dark IC50 (microM) Normoxia): > 100 µM; IC50 [2]: > 100 µM; singlet oxygen quantum yields in DCM ([3]; DCM): ca. 0.20
CCCCn1c2[n+](c3cc(C(=O)NCCCCCC(=O)NCCCNC(=O)C[n+]4ccc(/C(C#N)=C5/C=C(C)c6ccc(N(CC)CC)cc6O5)cc4)ccc31)[Ir-3]13([c]4ccccc4-c4[nH]c5ccccc5[n+]41)([c]1ccccc1-c1[nH]c4ccccc4[n+]13)[n+]1c-2ccc2ccccc21 [3d] | – | – | > 40 | 2.5 ± 0.2 µM | > 100 µM | strong fluorescence signal | slightly increased ROS levels | –
CCCCn1c2[n+](c3cc(C(=O)NC[C@H]4CC[C@H](C(=O)NCCCNC(=O)C[n+]5ccc(/C(C#N)=C6/C=C(C)c7ccc(N(CC)CC)cc7O6)cc5)CC4)ccc31)[Ir-3]13([c]4ccccc4-c4[nH]c5ccccc5[n+]41)([c]1ccccc1-c1[nH]c4ccccc4[n+]13)[n+]1c-2ccc2ccccc21 [3e] | – | – | > 13 | 7.6 ± 0.9 µM | > 100 µM | strong fluorescence signal | slightly increased ROS levels | –
